Assay [1] has as its system DNA. The experiment in a line: Induction of DNA damage in VHL-deficient human RCC4 cells assessed as increase in p53 expression at 0.5 uM incubated for 24 hrs by Western blot analysis. Type of assay: cell-based. A general note: A western blot detects proteins with antibodies after separation by electrophoresis.
Assay [2] deals with RCC4/VHL. The experiment in a line: Induction of apoptosis in human RCC4/VHL cells assessed as cleavage of pro-caspase 3 at 0.5 uM incubated for 24 hrs by Western blot analysis. The format is functional, cell-based.
Assay [3] concerns DNA. The experiment in a line: Induction of DNA damage in human RCC4/VHL cells assessed as increase in p53 expression at 0.5 uM incubated for 24 hrs by Western blot analysis. The format is cell-based.
The test system of assay [4] is RCC4. The experiment in a line: Induction of apoptosis in VHL-deficient human RCC4 cells assessed as cleavage of pro-caspase 3 at 0.5 uM incubated for 24 hrs by Western blot analysis. Type of assay: functional, cell-based.
The target of assay [5] is T1, Polyunsaturated fatty acid 5-lipoxygenase (Homo sapiens) (UniProt P09917).
T1 sequence (whole entry): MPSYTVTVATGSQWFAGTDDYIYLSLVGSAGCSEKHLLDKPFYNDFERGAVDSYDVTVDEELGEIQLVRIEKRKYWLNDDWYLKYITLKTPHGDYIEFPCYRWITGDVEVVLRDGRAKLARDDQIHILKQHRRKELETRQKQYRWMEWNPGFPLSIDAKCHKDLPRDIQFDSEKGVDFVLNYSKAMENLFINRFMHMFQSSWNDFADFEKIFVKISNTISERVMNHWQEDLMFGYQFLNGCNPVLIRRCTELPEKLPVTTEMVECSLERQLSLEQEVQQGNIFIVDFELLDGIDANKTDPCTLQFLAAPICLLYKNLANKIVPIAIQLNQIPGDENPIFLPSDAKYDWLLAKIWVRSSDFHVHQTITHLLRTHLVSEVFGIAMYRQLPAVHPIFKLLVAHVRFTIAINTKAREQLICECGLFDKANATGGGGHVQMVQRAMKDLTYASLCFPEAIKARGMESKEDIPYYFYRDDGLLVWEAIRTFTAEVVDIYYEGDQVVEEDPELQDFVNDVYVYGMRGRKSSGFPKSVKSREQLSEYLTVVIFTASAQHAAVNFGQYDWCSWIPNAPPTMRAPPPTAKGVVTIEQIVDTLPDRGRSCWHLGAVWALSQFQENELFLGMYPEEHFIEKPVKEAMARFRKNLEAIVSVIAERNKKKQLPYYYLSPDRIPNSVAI
The experiment in a line: Inhibition of human 5-LO transfected in HEK293 cells coexpressing FLAP assessed as reduction in leukotriene formation at 1 uM using arachidonic acid as substrate preincubated for 5 mins followed by calcium ionophore A23187/arachidonic acid addition and measured after 15 mins by RP-HPLC analysis. Type of assay: cell-based.

The target in assay [6] is T1, Polyunsaturated fatty acid 5-lipoxygenase (Homo sapiens). The experiment in a line: Inhibition of 5-LO in human PMNL cells assessed as reduction in leukotriene formation at 1 uM preincubated for 5 mins followed by thapsigargin stimulation measured after 15 mins by RP-HPLC analysis relative to control. The format is cell-based.
Assay [7] deals with T2, Polyunsaturated fatty acid 5-lipoxygenase (Homo sapiens, UniProt P09917).
T2 sequence (P09917 whole entry): T1 sequence (whole entry)
The experiment in a line: (§1) Inhibition of 5-LO in human PMNL cells assessed as reduction in leukotriene formation preincubated for 5 mins followed by thapsigargin stimulation measured after 15 mins by RP-HPLC analysis. The format is cell-based.

Assay [8] concerns RCC4/VHL. The experiment in a line: Induction of autophagy in human RCC4/VHL cells assessed as increase in LC3B2 expression incubated for 24 hrs by Western blot analysis. The format is functional, cell-based.
Assay [9] deals with RCC4. The experiment in a line: Induction of apoptosis in VHL-deficient human RCC4 cells assessed as cleavage of pro-caspase 3 after 24 hrs by Western blot analysis. Type of assay: functional, cell-based.
Assay [10] relates to RCC4. The experiment in a line: Induction of autophagy in VHL-deficient human RCC4 cells assessed as increase in conversion of LC3B1 to LC3B2 expression at 2.5 to 10 uM incubated for 24 hrs by Western blot analysis. The format is functional, cell-based.
Assay [11] deals with RCC4/VHL. The experiment in a line: Induction of DNA damage in human RCC4/VHL cells assessed as induction of p53 expression at 2.5 to 10 uM incubated for 24 hrs by Western blot analysis. The format is functional, cell-based.
In assay [12] the target is T1, Polyunsaturated fatty acid 5-lipoxygenase (Homo sapiens). The experiment in a line: Inhibition of human 5-LO transfected in HEK293 cells coexpressing FLAP assessed as leukotriene formation at 1 uM using arachidonic acid as substrate preincubated for 5 mins followed by calcium ionophore A23187/arachidonic acid addition and measured after 15 mins by RP-HPLC analysis relative to control. Type of assay: cell-based. On the set-up: scale not given: the % may be the effect or the level left.

Assay [13] deals with RCC4. The experiment in a line: Induction of autophagy in VHL-deficient human RCC4 cells assessed as increase in LC3B1 expression incubated for 24 hrs by Western blot analysis. The format is functional, cell-based.
The test system of assay [14] is RCC4. The experiment in a line: Inhibition of autophagic flux in VHL-deficient human RCC4 cells assessed as increase in p62 expression at 2.5 to 10 uM incubated for 24 hrs by Western blot analysis. Type of assay: functional, cell-based.
The target in assay [15] is T1, Polyunsaturated fatty acid 5-lipoxygenase (Homo sapiens). The experiment in a line: Potency index, ratio of CAPE IC50 to compound IC50 for inhibition of 5-LO in human PMNL cells assessed as reduction in leukotriene formation preincubated for 5 mins followed by thapsigargin stimulation measured after 15 mins by RP-HPLC analysis. Type of assay: cell-based.
The test system of assay [16] is RCC4/VHL. The experiment in a line: Inhibition of autophagic flux in human RCC4/VHL cells assessed as increase in p62 expression at 2.5 to 10 uM incubated for 24 hrs by Western blot analysis. Type of assay: functional, cell-based.
The nature of assay [17]: Cytotoxicity against VHL-deficient human RCC10 cells assessed as reduction in cell viability incubated for 4 days by XTT assay. The format is functional, cell-based. Particulars: 96 h. Background: Formazan colour is commonly taken as a measure of viable cells.
The subject of assay [18] is RCC4. The experiment in a line: Cytotoxicity against VHL-deficient human RCC4 cells assessed as reduction in cell viability incubated for 4 days by XTT assay. Type of assay: functional, cell-based.
Assay [19] addresses T1, Polyunsaturated fatty acid 5-lipoxygenase (Homo sapiens). The experiment in a line: Potency index, ratio of Zileuton IC50 to compound IC50 for inhibition of 5-LO in human PMNL cells assessed as reduction in leukotriene formation preincubated for 5 mins followed by thapsigargin stimulation measured after 15 mins by RP-HPLC analysis. The format is cell-based.
Assay [20] has as its system RCC4/VHL. The experiment in a line: Induction of autophagy in human RCC4/VHL cells assessed as increase in LC3B1 expression incubated for 24 hrs by Western blot analysis. Type of assay: functional, cell-based.
The subject of assay [21] is RCC4/VHL. The experiment in a line: Induction of autophagy in human RCC4/VHL cells assessed as increase in conversion of LC3B1 to LC3B2 expression at 2.5 to 10 uM incubated for 24 hrs by Western blot analysis. The format is functional, cell-based.
For assay [22], the system named is RCC4. The experiment in a line: Induction of autophagy in VHL-deficient human RCC4 cells assessed as increase in LC3B2 expression incubated for 24 hrs by Western blot analysis. Type of assay: functional, cell-based.
Assay [23] relates to RCC4/VHL. The experiment in a line: Cytotoxicity against VHL-positive human RCC4/VHL cells assessed as reduction in cell viability incubated for 4 days by XTT assay. The format is functional, cell-based.
The target in assay [24] is T1, Polyunsaturated fatty acid 5-lipoxygenase (Homo sapiens). The description is as §1. The format is cell-based.
Assay [25] has as its system RCC4/VHL. The experiment in a line: Induction of cellular phenotype changes in human RCC4/VHL cells at 2.5 to 10 uM incubated for 24 hrs by inverted microscopic analysis. Type of assay: functional, cell-based.
Assay [26] has as its system 786-0. The experiment in a line: Cytotoxicity against VHL-deficient human 786-0 cells assessed as reduction in cell viability incubated for 4 days by XTT assay. The format is functional, cell-based. To be noted: 786-0, 96 h.
A short description of assay [27]: Cytotoxicity against VHL-positive human RCC10 cells assessed as reduction in cell viability incubated for 4 days by XTT assay. Particulars: 96 h. The format is functional, cell-based.
The test system of assay [28] is RCC4. The experiment in a line: Induction of cellular phenotype changes in VHL-deficient human RCC4 cells at 2.5 to 10 uM incubated for 24 hrs by inverted microscopic analysis. The format is functional, cell-based.
Assay [29] is described as follows: Selectivity ratio of IC50 for VHL-positive human RCC4/VHL cells to IC50 for VHL-deficient human RCC4 cells. Type of assay: functional.
Assay [30] relates to 786-0. The experiment in a line: Cytotoxicity against VHL-positive human 786-0 cells assessed as reduction in cell viability incubated for 4 days by XTT assay. Type of assay: functional, cell-based. To be noted: 786-0, 96 h.
The test system of assay [31] is RCC4. The experiment in a line: Induction of DNA damage in VHL-deficient human RCC4 cells assessed as induction of p53 expression at 2.5 to 10 uM incubated for 24 hrs by Western blot analysis. Type of assay: functional, cell-based.
Assay [32] in a line: Antioxidant activity assessed as DPPH radical scavenging activity incubated for 30 mins under dark condition. The format is functional. (DPPH is a stable violet radical that fades when it is reduced.)

Consider seven compounds from ChEMBL document CHEMBL4414547, “Discovery of a novel 2,5-dihydroxycinnamic acid-based 5-lipoxygenase inhibitor that induces apoptosis and may impair autophagic flux in RCC4 renal cancer cells” (Eur J Med Chem, 2019).

SMILES strings stand for the structures. Activity calls are given as the source filed them. No cut-off for these calls is given here.

Consider `COc1cccc2c1C(=O)c1c(O)c3c(c(O)c1C2=O)C[C@@](O)(C(=O)CO)C[C@@H]3O[C@H]1C[C@H](N)[C@H](O)[C@H](C)O1`, for which the result in the assay with DNA [1] and with DNA [3] was Active. Further, the result in the assay on RCC4/VHL [2] and in the assay with RCC4 [4] was inactive.
The term inhibition denotes the percentage by which the read-out fell short of the control. One may read the IC50 as the concentration at which inhibition is half-maximal. For the compound `O=C(/C=C/c1cccc(O)c1O)OCCc1ccccc1`, the inhibition entry in [5] was “Active”. Also, the inhibition in [6] is more than 50%. Besides, the IC50 in assay [7] came out at 890 nM.
Consider `O=C(/C=C/c1cc(O)ccc1O)OCCc1ccccc1`, for which the Activity entry in the assay with RCC4/VHL [8] is “Dose-dependent effect”; in the assay on RCC4 [9], “Dose-dependent effect”; in [12], 25%; in the assay on RCC4 [13], “Dose-dependent effect”; in the assay on RCC4 [18], “Dose-dependent effect”; in the assay on RCC4/VHL [20], “Dose-dependent effect”. The Activity result with RCC4 [22] and in the assay on RCC4/VHL [23] was “Dose-dependent effect” in each case. The result in the assay with RCC4 [10] and in the assay on RCC4/VHL [21] was Active. Further, the result with RCC4/VHL [11], in the assay on RCC4/VHL [25], with RCC4 [28] and in the assay on RCC4 [31] was inactive. For the same compound, the inhibition is more than 50% in [6] and “Dose-dependent effect” in assay [24]. For the same compound, the inhibition result in the assay with RCC4 [14] and with RCC4/VHL [16] was “Active” throughout. Further, the Ratio IC50 in [15] was found to be 3; in assay [19], 7; in assay [29], 12. The IC50 in assay [17] came to 5.04 µM; in the assay with RCC4 [18] (RCC4, 96 h), 8 µM; with RCC4/VHL [23] (96 h) it was 99.6 µM; in [7], 330 nM; with 786-0 [26], 34.8 µM; in [27] it was 960 nM. Moreover, the values for the IC50 (with 786-0 [30]; in assay [32]) were more than 100 µM and 16.4 µM, respectively.
As for `O=C(/C=C/c1cccc(O)c1O)OCCCc1ccccc1`, in assay [5], the inhibition entry was “Active”.
As for `O=C(/C=C/c1cc(O)cc(O)c1)OCCc1ccccc1`, the Activity in assay [12] came to 100%.
In the case of `O=C(/C=C/c1ccc(O)cc1O)OCCc1ccccc1`, the Activity in [12] turned out to be 100%.
`O=C(/C=C/c1ccc(O)cc1O)OCCCc1ccccc1`: in [5], the inhibition result is “inactive”.
